According to ChEMBL document CHEMBL1909046, “DrugMatrix in vitro pharmacology data”:

How the values were obtained:
[1] = biological target: T1, Cytochrome P450 1A2 (Homo sapiens, UniProt P05177)
T1 sequence (P05177 whole entry): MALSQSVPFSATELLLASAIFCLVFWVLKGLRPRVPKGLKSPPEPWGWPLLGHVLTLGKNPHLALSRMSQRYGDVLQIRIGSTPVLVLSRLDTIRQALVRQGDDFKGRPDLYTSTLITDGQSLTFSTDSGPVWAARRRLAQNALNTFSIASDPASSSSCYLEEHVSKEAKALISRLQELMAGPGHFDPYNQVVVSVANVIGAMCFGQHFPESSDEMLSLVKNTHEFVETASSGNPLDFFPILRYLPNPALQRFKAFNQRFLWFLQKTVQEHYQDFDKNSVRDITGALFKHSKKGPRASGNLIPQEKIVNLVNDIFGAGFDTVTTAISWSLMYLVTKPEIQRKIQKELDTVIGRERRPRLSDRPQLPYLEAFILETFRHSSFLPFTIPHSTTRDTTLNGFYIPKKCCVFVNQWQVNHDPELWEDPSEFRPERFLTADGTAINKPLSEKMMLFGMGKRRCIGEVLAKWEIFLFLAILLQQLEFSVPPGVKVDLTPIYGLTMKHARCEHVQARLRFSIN

[2] = biological target: Cytochrome P450 2C19 (Homo sapiens, UniProt P33261)
Sequence of Cytochrome P450 2C19 (P33261 whole entry): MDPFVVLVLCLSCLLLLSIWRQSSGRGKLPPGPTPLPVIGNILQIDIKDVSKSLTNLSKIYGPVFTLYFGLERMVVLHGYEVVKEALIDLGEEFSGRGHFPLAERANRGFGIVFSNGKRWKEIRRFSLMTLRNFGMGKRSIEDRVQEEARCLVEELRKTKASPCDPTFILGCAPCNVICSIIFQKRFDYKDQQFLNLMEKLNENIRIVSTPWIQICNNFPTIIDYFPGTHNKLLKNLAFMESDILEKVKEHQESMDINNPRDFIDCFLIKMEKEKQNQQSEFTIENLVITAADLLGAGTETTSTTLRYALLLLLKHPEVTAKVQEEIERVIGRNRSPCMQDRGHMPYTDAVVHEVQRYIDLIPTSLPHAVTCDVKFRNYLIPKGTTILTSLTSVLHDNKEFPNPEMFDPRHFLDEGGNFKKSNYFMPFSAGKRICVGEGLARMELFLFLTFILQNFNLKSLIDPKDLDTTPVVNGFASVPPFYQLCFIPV

[3] = biological target: T2, Androgen receptor (Rattus norvegicus, UniProt P15207)
T2 sequence (P15207 whole entry): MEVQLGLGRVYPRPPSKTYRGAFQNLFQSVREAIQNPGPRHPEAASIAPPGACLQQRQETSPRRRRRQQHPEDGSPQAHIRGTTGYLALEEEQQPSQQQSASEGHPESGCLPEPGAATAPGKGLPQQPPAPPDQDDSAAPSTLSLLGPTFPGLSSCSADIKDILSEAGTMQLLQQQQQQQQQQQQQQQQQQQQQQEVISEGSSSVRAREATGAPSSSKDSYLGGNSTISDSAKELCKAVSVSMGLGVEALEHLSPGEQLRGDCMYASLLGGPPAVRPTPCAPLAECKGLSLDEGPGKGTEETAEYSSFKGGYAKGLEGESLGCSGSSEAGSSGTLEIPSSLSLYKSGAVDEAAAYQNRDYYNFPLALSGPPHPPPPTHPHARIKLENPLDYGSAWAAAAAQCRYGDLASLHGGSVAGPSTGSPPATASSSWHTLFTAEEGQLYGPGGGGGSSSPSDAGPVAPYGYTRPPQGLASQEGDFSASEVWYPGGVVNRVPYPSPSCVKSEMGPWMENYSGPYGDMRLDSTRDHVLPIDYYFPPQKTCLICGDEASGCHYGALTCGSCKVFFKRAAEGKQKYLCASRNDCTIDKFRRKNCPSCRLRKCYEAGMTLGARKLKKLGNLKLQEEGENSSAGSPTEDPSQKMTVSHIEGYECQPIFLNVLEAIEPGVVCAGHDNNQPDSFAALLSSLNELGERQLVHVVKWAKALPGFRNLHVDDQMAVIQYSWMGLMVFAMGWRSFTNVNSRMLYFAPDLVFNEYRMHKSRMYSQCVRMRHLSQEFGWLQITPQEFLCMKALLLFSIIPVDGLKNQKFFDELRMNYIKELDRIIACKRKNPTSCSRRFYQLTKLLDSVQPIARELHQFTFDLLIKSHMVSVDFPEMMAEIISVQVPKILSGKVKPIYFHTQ

[4] = biological target: Voltage-gated inwardly rectifying potassium channel KCNH2 (Homo sapiens, UniProt Q12809)
Sequence of Voltage-gated inwardly rectifying potassium channel KCNH2 (Q12809 whole entry): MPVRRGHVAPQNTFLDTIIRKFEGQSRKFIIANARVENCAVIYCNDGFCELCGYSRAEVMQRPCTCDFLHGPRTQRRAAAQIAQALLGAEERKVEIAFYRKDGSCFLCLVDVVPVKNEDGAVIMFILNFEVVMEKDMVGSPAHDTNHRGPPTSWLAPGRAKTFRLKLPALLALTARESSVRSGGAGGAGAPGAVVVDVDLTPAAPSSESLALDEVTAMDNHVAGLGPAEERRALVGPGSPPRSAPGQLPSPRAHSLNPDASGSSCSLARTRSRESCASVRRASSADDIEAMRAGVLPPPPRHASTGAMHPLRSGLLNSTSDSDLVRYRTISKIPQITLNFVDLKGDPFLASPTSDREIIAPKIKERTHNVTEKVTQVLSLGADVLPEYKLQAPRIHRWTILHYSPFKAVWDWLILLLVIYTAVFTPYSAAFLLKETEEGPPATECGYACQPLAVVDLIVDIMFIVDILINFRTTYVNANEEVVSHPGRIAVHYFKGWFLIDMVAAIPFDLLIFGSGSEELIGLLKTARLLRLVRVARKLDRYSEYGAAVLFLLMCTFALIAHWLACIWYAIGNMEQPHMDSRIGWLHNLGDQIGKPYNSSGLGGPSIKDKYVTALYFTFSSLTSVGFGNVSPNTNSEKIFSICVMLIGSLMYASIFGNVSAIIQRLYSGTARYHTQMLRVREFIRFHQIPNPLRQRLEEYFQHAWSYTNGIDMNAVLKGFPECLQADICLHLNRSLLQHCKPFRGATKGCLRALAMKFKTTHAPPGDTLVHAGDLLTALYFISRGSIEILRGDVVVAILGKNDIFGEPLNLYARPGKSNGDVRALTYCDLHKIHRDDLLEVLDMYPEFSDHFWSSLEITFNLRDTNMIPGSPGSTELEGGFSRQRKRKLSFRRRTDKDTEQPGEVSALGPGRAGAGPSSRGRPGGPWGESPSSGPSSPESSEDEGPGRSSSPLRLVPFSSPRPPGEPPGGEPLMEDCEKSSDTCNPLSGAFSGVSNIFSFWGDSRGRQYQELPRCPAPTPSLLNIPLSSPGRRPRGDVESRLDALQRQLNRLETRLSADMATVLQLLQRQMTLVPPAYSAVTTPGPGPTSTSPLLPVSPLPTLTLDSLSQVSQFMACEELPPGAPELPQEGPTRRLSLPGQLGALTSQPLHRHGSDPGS

[5] = biological target: Cytochrome P450 2C9 (Homo sapiens, UniProt P11712)
Sequence of Cytochrome P450 2C9 (P11712 whole entry): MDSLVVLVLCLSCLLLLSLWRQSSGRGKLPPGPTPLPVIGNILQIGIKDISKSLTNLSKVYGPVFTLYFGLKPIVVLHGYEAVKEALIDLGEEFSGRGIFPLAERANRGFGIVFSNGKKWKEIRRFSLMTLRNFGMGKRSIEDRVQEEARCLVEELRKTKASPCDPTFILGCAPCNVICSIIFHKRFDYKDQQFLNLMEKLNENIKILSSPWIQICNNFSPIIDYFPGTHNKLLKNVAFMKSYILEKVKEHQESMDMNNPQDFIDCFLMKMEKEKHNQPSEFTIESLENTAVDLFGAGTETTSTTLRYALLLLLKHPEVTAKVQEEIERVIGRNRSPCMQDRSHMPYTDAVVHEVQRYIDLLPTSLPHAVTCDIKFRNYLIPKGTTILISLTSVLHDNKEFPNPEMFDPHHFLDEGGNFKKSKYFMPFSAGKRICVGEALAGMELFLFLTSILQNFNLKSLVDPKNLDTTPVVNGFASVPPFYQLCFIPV

Row | SMILES | IC50 [1] | IC50 [2] | IC50 [5] | other results
1 | Clc1ccc(COC(Cn2ccnc2)c2ccc(Cl)cc2Cl)cc1 (stereo unspecified) [ECONAZOLE] | 300 nM | 40 nM | – | –
2 | C[C@H]1C[C@@H]2[C@H]([C@@H](O)C[C@@]3(C)[C@H]2CC[C@]3(O)C(=O)CO)[C@@]2(C)C=CC(=O)C=C12 [METHYLPREDNISOLONE] | – | – | – | IC50 [3]: 26700 nM; Ki [3]: 17800 nM
3 | CN[C@H]1CC[C@@H](c2ccc(Cl)c(Cl)c2)c2ccccc21 [SERTRALINE] | – | 1000 nM | – | IC50 [4]: 8320 nM; Ki [4]: 6810 nM
4 | NC(=O)N1C(=O)/C(=C(\O)c2cccs2)c2cc(Cl)ccc21 [TENIDAP] | 1000 nM | – | 700 nM | –
5 | O=C(Nc1ccc(Br)cc1)c1cc(Br)cc(Br)c1O [TRIBROMSALAN] | 2000 nM | – | 2000 nM | –
